Test results taken from US12528792B2, “Sulfonamide compounds and the use thereof in the treatment of cancer” (TROBIO THERAPEUTICS PTY LTD, priority 2019, dated 2026).

Key:
[1] = tested on: A549 (NSCLC) cells; experiment: Anti-proliferative activity, Cell-Titre luminescent viability assay; assay type: cell-based; settings: Homo sapiens, 72 h exposure, Cell-Titre luminescent reagent
Procedure: (§1) The ability of compounds of the disclosure to inhibit the proliferation of cancer cells representative of non-small cell lung cancer and ovarian cancer (Table 1), and pancreatic cancer, colorectal cancer and prostate cancer (Table 2) was assessed. Briefly, a predetermined number of cells as calculated from cell growth assays for each of the cell lines employed were seeded into their respective culture medium (using ATCC culture parameters—http://www.atcc.org) and cultured for 24 h at 37° C. and 5% CO2 in 96-well culture plates. Once attached, each cell line was then exposed to various concentrations of each respective analogue (100, 30, 10, 3, 1 and 0.3 µM or 30, 10, 3, 1, 0.3 and 0.1 μM), cultured for a further 72 h and exposed to Cell-Titre luminescent reagent (100 μL/well) for a further 30 min. Luminescence was captured using an EnVision multilabel reader and the data for each analogue concentration compared against no treatment control. Cell viability was normalised to control (vehicle alone) and dose response curves, and half maximal effective concentration (EC50) values were determined using Graph Pad Prism 6 (nonlinear regression sigmoidal dose-response variable slope).

[2] = tested on: A2780 (ovarian) cells; experiment: as above; assay type: cell-based; settings: Homo sapiens, 72 h exposure, Cell-Titre luminescent reagent
Procedure: as §1

With O=C(Nc1ccc(F)nc1)c1ccn(S(=O)(=O)c2ccc3[nH]ccc3c2)n1 [Compound 86, 1-((1H-indol-5-yl)sulfonyl)-N-(6-fluoropyridin-3-yl)-1H-pyrazole-3-carboxamide] the IC50 [1] was over 30 µM and the IC50 [2] was over 30 µM.
Compound O=C(Nc1ccc(Cl)nc1)c1ccn(S(=O)(=O)c2ccc3[nH]ccc3c2)n1 [Compound 87, 1-((1H-indol-5-yl)sulfonyl)-N-(6-chloropyridin-3-yl)-1H-pyrazole-3-carboxamide] has an IC50 [1] of over 30 µM and an IC50 [2] of at least 30 µM.
CC(C)c1ccc(NC(=O)c2ccn(S(=O)(=O)c3ccc4[nH]ccc4c3)c2)cc1F [Compound 95, 1-((1H-indol-5-yl)sulfonyl)-N-(3-fluoro-4-isopropylphenyl)-1H-pyrrole-3-carboxamide] gave an IC50 [1] of 7.84 µM and an IC50 [2] of 5.28 µM.
Compound COc1ccc(NC(=O)c2ccn(S(=O)(=O)c3ccc4[nH]ccc4c3)n2)cc1F [Compound 116, 1-((1H-indol-5-yl)sulfonyl)-N-(3-fluoro-4-methoxyphenyl)-1H-pyrazole-3-carboxamide] has an IC50 [1] of 13.4 µM and an IC50 [2] of over 30 µM.
For CC(C)Cc1ccc(NC(=O)c2ccn(S(=O)(=O)c3ccc4[nH]ccc4c3)c2)cc1F [Compound 99, 1-((1H-indol-5-yl)sulfonyl)-N-(3-fluoro-4-isobutylphenyl)-1H-pyrrole-3-carboxamide], the IC50 [1] was 7.47 µM and the IC50 [2] was 4.9 µM.
CC(C)Cc1ccc(NC(=O)c2ccn(S(=O)(=O)c3ccc4[nH]ccc4c3)n2)cc1F [Compound 112, 1-((1H-indol-5-yl)sulfonyl)-N-(3-fluoro-4-isobutylphenyl)-1H-pyrazole-3-carboxamide] gave an IC50 [1] of 5.11 µM and an IC50 [2] of 8.81 µM.
Work on O=C(Nc1ccc(F)c(F)c1)c1ccn(S(=O)(=O)c2ccc3[nH]ccc3c2)n1 [Compound 80, 1-((1H-indol-5-yl)sulfonyl)-N-(3,4-difluorophenyl)-1H-pyrazole-3-carboxamide] yielded an IC50 [1] of 4.84 µM and an IC50 [2] of 13.2 µM.
O=C(Nc1ccc(F)cn1)c1ccn(S(=O)(=O)c2ccc3[nH]ccc3c2)n1 [Compound 84, 1-((1H-indol-5-yl)sulfonyl)-N-(5-fluoropyridin-2-yl)-1H-pyrazole-3-carboxamide] was tested, and the IC50 [1] was over 30 µM and the IC50 [2] was over 30 µM.
With CC(C)Cc1ccc(NC(=O)c2ccn(S(=O)(=O)c3ccc4[nH]ccc4c3)c2)cc1 [Compound 98, 1-((1H-indol-5-yl)sulfonyl)-N-(4-isobutylphenyl)-1H-pyrrole-3-carboxamide] the IC50 [1] was 13.2 µM and the IC50 [2] was 5.07 µM.
In the case of O=C(Nc1ccc(F)c(Cl)c1)c1ccn(S(=O)(=O)c2ccc3[nH]ccc3c2)c1 [Compound 70, 1-((1H-indol-5-yl)sulfonyl)-N-(3-chloro-4-fluorophenyl)-1H-pyrrole-3-carboxamide], the IC50 [1] is reported as 13.8 µM and the IC50 [2] is reported as 12.2 µM.
Work on COc1ccc(NC(=O)c2ccn(S(=O)(=O)c3ccc4[nH]ccc4c3)c2)cc1F [Compound 103, 1-((1H-indol-5-yl)sulfonyl)-N-(3-fluoro-4-methoxyphenyl)-1H-pyrrole-3-carboxamide] yielded an IC50 [1] of over 30 µM and an IC50 [2] of over 30 µM.
In the case of CC(C)c1ccccc1NC(=O)c1ccn(S(=O)(=O)c2ccc3[nH]ccc3c2)c1 [Compound 39, 1-((1H-indol-5-yl)sulfonyl)-N-(2-isopropylphenyl)-1H-pyrrole-3-carboxamide], the IC50 [1] is reported as over 30 µM and the IC50 [2] is reported as over 30 µM.
Work on O=C(Nc1c(F)cccc1F)c1ccn(S(=O)(=O)c2ccc3[nH]ccc3c2)c1 [Compound 53, 1-((1H-indol-5-yl)sulfonyl)-N-(2,6-difluorophenyl)-1H-pyrrole-3-carboxamide] yielded an IC50 [1] of over 30 µM and an IC50 [2] of over 30 µM.
For CCC(C)c1ccc(NC(=O)N2CCN(S(=O)(=O)c3cc(C(N)=O)n(C)c3)CC2)cc1 (centres unmarked) [Compound 9, N-(4-(sec-butyl)phenyl)-4-((5-carbamoyl-1-methyl-1H-pyrrol-3-yl)sulfonyl)piperazine-1-carboxamide], the IC50 [1] was over 100 µM and the IC50 [2] was over 100 µM.
Compound Cc1ccc(NC(=O)C2CCN(S(=O)(=O)c3cc(C(N)=O)n(C)c3)CC2)cc1O [Compound 1, 1-((5-carbamoyl-1-methyl-1H-pyrrol-3-yl)sulfonyl)-N-(3-hydroxy-4-methylphenyl)piperidine-4-carboxamide] has an IC50 [1] of over 100 µM and an IC50 [2] of over 100 µM.
Cc1ccc(NC(=O)C2CCN(S(=O)(=O)c3ccc4c(c3)CCN4)CC2)cc1O [Compound 4, N-(3-hydroxy-4-methylphenyl)-1-(indolin-5-ylsulfonyl)piperidine-4-carboxamide] gave an IC50 [1] of over 100 µM and an IC50 [2] of over 100 µM.
Cn1cc(S(=O)(=O)n2ccc(C(=O)Nc3ccc(C(F)(F)F)cc3)c2)cc1C(N)=O [Compound 20, 1-methyl-4-((3-((4-(trifluoromethyl)phenyl)carbamoyl)-1H-pyrrol-1-yl)sulfonyl)-1H-pyrrole-2-carboxamide] gave an IC50 [1] of over 100 µM and an IC50 [2] of 24.7 µM.
In the case of O=C(Nc1ccc(Cl)cn1)c1ccn(S(=O)(=O)c2ccc3[nH]ccc3c2)c1 [Compound 73], the IC50 [1] is reported as 2.62 µM and the IC50 [2] is reported as 11.2 µM.
With COc1ccc(NC(=O)c2ccn(S(=O)(=O)c3ccc4[nH]ccc4c3)n2)cc1 [Compound 115, 1-((1H-indol-5-yl)sulfonyl)-N-(4-methoxyphenyl)-1H-pyrazole-3-carboxamide] the IC50 [1] was over 30 µM and the IC50 [2] was over 30 µM.
O=C(Nc1ccc(F)cc1)c1ccn(S(=O)(=O)c2ccc3[nH]ccc3c2)n1 [Compound 76, 1-((1H-indol-5-yl)sulfonyl)-N-(4-fluorophenyl)-1H-pyrazole-3-carboxamide] was tested, and the IC50 [1] was over 30 µM and the IC50 [2] was 23.8 µM.
CCC(C)c1ccc(NC(=O)N2CCN(S(=O)(=O)c3ccc4c(c3)CCN4)CC2)cc1 (centres unmarked) [Compound 12, N-(4-(sec-butyl)phenyl)-4-(indolin-5-ylsulfonyl)piperazine-1-carboxamide] was tested, and the IC50 [1] was over 100 µM and the IC50 [2] was over 100 µM.
Compound O=C(Nc1ccc(F)nc1)c1ccn(S(=O)(=O)c2ccc3[nH]ccc3c2)c1 [Compound 74, 1-((1H-indol-5-yl)sulfonyl)-N-(6-fluoropyridin-3-yl)-1H-pyrrole-3-carboxamide] has an IC50 [1] of over 30 µM and an IC50 [2] of 3.9 µM.
CCc1ccccc1NC(=O)c1ccn(S(=O)(=O)c2ccc3[nH]ccc3c2)c1 [Compound 42, 1-((1H-indol-5-yl)sulfonyl)-N-(2-ethylphenyl)-1H-pyrrole-3-carboxamide] was tested, and the IC50 [1] was 9.8 µM and the IC50 [2] was 13.4 µM.
COc1ccc(NC(=O)c2ccn(S(=O)(=O)c3ccc4[nH]ccc4c3)c2)cc1 [Compound 102, 1-((1H-indol-5-yl)sulfonyl)-N-(4-methoxyphenyl)-1H-pyrrole-3-carboxamide] gave an IC50 [1] of 16.1 µM and an IC50 [2] of 13.4 µM.
O=C(Nc1ccc(Cl)c(F)c1)c1ccn(S(=O)(=O)c2ccc3[nH]ccc3c2)n1 [Compound 81, 1-((1H-indol-5-yl)sulfonyl)-N-(4-chloro-3-fluorophenyl)-1H-pyrazole-3-carboxamide] gave an IC50 [1] of over 30 µM and an IC50 [2] of 9.33 µM.
Work on Cc1ccccc1NC(=O)C1CCN(S(=O)(=O)c2ccc3[nH]ccc3c2)CC1 [Compound 62, 1-((1H-indol-5-yl)sulfonyl)-N-(o-tolyl)piperidine-4-carboxamide] yielded an IC50 [1] of over 30 µM and an IC50 [2] of over 30 µM.
CCc1ccc(NC(=O)c2ccn(S(=O)(=O)c3ccc4[nH]ccc4c3)c2)cc1 [Compound 40, 1-((1H-indol-5-yl)sulfonyl)-N-(4-ethylphenyl)-1H-pyrrole-3-carboxamide] gave an IC50 [1] of 11.3 µM and an IC50 [2] of 11 µM.
In the case of O=C(Nc1ccc2c(c1)OCO2)c1ccn(S(=O)(=O)c2ccc3[nH]ccc3c2)n1 [Compound 117, 1-((1H-indol-5-yl)sulfonyl)-N-(benzo[d][1,3]dioxol-5-yl)-1H-pyrazole-3-carboxamide], the IC50 [1] is reported as over 30 µM and the IC50 [2] is reported as over 30 µM.
Cc1cc(C)cc(NC(=O)c2ccn(S(=O)(=O)c3ccc4[nH]ccc4c3)c2)c1 [Compound 52, 1-((1H-indol-5-yl)sulfonyl)-N-(3,5-dimethylphenyl)-1H-pyrrole-3-carboxamide] showed an IC50 [1] of 10.7 µM and an IC50 [2] of 11.8 µM.
N#Cc1ccc(NC(=O)c2ccn(S(=O)(=O)c3ccc4[nH]ccc4c3)n2)cc1 [Compound 79, 1-((1H-indol-5-yl)sulfonyl)-N-(4-cyanophenyl)-1H-pyrazole-3-carboxamide] showed an IC50 [1] of 6.72 µM and an IC50 [2] of over 30 µM.
For CCC(C)c1ccc(NC(=O)c2ccn(S(=O)(=O)c3ccc4[nH]ccc4c3)n2)cc1 (centres unmarked) [Compound 105, 1-((1H-indol-5-yl)sulfonyl)-N-(4-(sec-butyl)phenyl)-1H-pyrazole-3-carboxamide], the IC50 [1] was 8.51 µM and the IC50 [2] was 7.51 µM.
Work on CC(C)Cc1ccc(NC(=O)c2ccn(S(=O)(=O)c3ccc4[nH]ccc4c3)n2)cc1 [Compound 111, 1-((1H-indol-5-yl)sulfonyl)-N-(4-isobutylphenyl)-1H-pyrazole-3-carboxamide] yielded an IC50 [1] of 6.85 µM and an IC50 [2] of 11.4 µM.
Cc1cccc(C)c1NC(=O)c1ccn(S(=O)(=O)c2ccc3[nH]ccc3c2)c1 [Compound 51, 1-((1H-indol-5-yl)sulfonyl)-N-(2,6-dimethylphenyl)-1H-pyrrole-3-carboxamide] was tested, and the IC50 [1] was 17.9 µM and the IC50 [2] was 7.2 µM.
CCC(C)c1ccc(NC(=O)c2ccn(S(=O)(=O)c3ccc(C(C)(C)C)cc3)c2)cc1 (centres unmarked) [Compound 91, N-(4-(sec-butyl)phenyl)-1-((4-(tert-butyl)phenyl)sulfonyl)-1H-pyrrole-3-carboxamide] showed an IC50 [1] of over 30 µM and an IC50 [2] of over 30 µM.
